Results taken from publication PMC12388496, “Discovery of (E)-1,3-Diphenyl-2-Propen-1-One Derivatives as Potent and Orally Active NLRP3 Inflammasome Inhibitors for Colitis” (Molecules, 2025).

Tests used:
NLRC4 inflammasome = NLRC4 inflammasome activation induced by S.typhi in BMDMs; type: cell-based, mouse; conditions: F14 10 μM, LPS-primed BMDMs
Text: The NLRP3 inflammasome can be activated by various stimuli, such as microbial toxins and urate crystals. This process plays a central role in the pathogenesis of many inflammatory diseases. To assess whether F14 exerts a broad-spectrum inhibitory effect on NLRP3 inflammasome activation, we used three different activators—ATP, MSU, and Nigericin to stimulate BMDMs. […] Among the inflammasome family, NLRC4 and AIM2 are also protein complexes involved in the innate immune response, playing key roles in inflammatory regulation during infection and tissue damage. Poly (dA:dT) was used to induce AIM2 activation, while S.typhi was employed to stimulate NLRC4 activation.
The LPS concentration was 200 ng/mL to pretreat BMDM cells for 3 h, then F14 (10 μM) was added to treat the cells for 30 min, and then each inducer—Nigericin (10 μM, 0.5 h), ATP (2.5 mM, 0.5 h), MSU (150 μg/mL, 4 h), S.typhi (4 h), and poly-(dA:dT) (0.5 μg/mL, 4 h)—were added for stimulation. (A) F14 has a broad-spectrum inhibitory effect on NLRP3 inflammasome activation. (B) F14 has a specific inhibitory effect on NLRP3 inflammasome activation. Data are presented as the mean ± SEM (n = 3). *** p < 0.001 vs. the model group. NS, not significant.

ASC = ASC spot immunofluorescence experiment in BMDM cells; type: cell-based, mouse; conditions: LPS and Nigericin, concentration-dependent
Text: The formation of ASC oligomers is a key hallmark of inflammasome activation. ASC forms interactions with other ASC molecules through its pyrin domain (PYD), which leads to the aggregation of these molecules, resulting in the formation of a speck-like structure (ASC specks). This process involves not only the aggregation of proteins but also the assembly of a highly ordered structure in the cytoplasm. Inhibition of ASC oligomerization can effectively block NLRP3 inflammasome activation. […] Therefore, we hypothesize that F14 may inhibit caspase-1 activation by interfering with ASC oligomerization or ASC speck formation. To validate this hypothesis, we conducted immunofluorescence experiments in BMDM cells under inflammatory conditions.
Add the BMDM cells into a 24-well plate with a cell density of 3 × 10^5 cells per well. Add LPS (200 ng/mL) to all wells except the blank wells to stimulate the cells for 3 h, then add the F14 to the experimental group and incubate for 1 h, followed by Nigericin stimulation for 30 min. Add 500 μL of FAA fixation solution to each well, incubate with 1% TritonX-100 solution for 15 min, then block with 5% BSA solution. Add an appropriate amount of primary antibody and incubate overnight, wash, then add the secondary antibody for incubation. […]

THP-1 cells = assay: LDH release assay; type: cell-based; conditions: NLRP3 inflammasome activation by LPS/Nigericin
Text: Pyroptosis is a form of programmed cell death, typically triggered by the activation of inflammasomes within the cell. It is characterized by the rupture of the cell membrane, releasing cellular contents (such as Lactate Dehydrogenase, LDH), which enhances the inflammatory response. Unlike apoptosis, pyroptosis is initiated through the activation of inflammasomes, involving distinct molecular mechanisms, and is often accompanied by cell swelling and rupture. In contrast, apoptosis is triggered by the activation of Caspase-3, leading to systemic degradation within the cell while maintaining the integrity of the cell membrane. The cell undergoes controlled self-degradation without provoking an immune response. Inhibiting pyroptosis is crucial for alleviating inflammation and promoting tissue repair. To investigate the effect of compound F14 on pyroptosis, we employed flow cytometry and lactate dehydrogenase (LDH) release assays for systematic analysis. Flow cytometry was used to assess the impact of F14 on pyroptosis under inflammatory conditions.
Count the THP-1 cells and inoculate them into a 96-well plate. Add 50 ng/mL PMA and culture the cells at 37 °C in a 5% CO2 incubator for 24 h. Add LPS-containing medium and stimulate the cells for 3 h to induce an inflammatory response. Add F14 and incubate for 1 h, then add Nigericin and stimulate for 30 min to induce pyroptosis. […]

Cc1ccc(C(=O)/C=C/c2cccc(O)c2)c(C)c1 [Compound F14, (E)-1-(2,4-dimethylphenyl)-3-(3-hydroxyphenyl)propyl-2-en-1-one]
activation of NLRC4 inflammasome (NLRC4 inflammasome): no effect | ASC speckles (ASC): significant reduction | LDH release (THP-1 cells): decreased in a concentration-dependent manner
